Data from the CheMixHub viscosity set.

Test: xn = mol fraction of the nth substance listed

CCCCCCCCCCCCO + CCCCCCC
viscosity [mPa·s], 101.33 kPa
Details	298.15 K	308.15 K
x1 = 0.0343	0.4411	0.3932
x1 = 0.0687	0.514	0.4523
x1 = 0.1389	0.7038	0.6054
x1 = 0.2173	0.9825	0.8279
x1 = 0.2965	1.372	1.126
x1 = 0.392	2.04	1.632
x1 = 0.4898	2.746	2.224
x1 = 0.5941	4.056	3.199
x1 = 0.7213	5.958	4.858
x1 = 0.7853	7.414	5.854
x1 = 0.8475	9.506	7.073
x1 = 0.9227	11.73	8.856

CC(C)CCCC(C)CCCC(C)CCCCC(C)CCCC(C)CCCC(C)C (stereo not drawn) + CCCCCCCC
viscosity [mPa·s], 100 kPa
Details	x1 = 0.238	x1 = 0.492	x1 = 0.709
293.15 K	2.43	7.43	15.6
313.15 K	1.6	4.27	7.68

CCCOC(=O)CCC + CCCCCCCCCC
298.15 K, 101.33 kPa
Details	viscosity [mPa·s]
x2 = 0.107	0.775
x2 = 0.1388	0.773
x2 = 0.1735	0.771
x2 = 0.2644	0.768
x2 = 0.3659	0.768
x2 = 0.4232	0.769
x2 = 0.5092	0.773
x2 = 0.6715	0.79
x2 = 0.7654	0.804
x2 = 0.8807	0.828
x2 = 0.9329	0.841

CCc1cccc(CC)c1 + CCCCCCCCCCCC
viscosity [mPa·s], 102 kPa
Details	x1 = 0.0991	x1 = 0.2011	x1 = 0.2996	x1 = 0.4004	x1 = 0.5006	x1 = 0.5983	x1 = 0.6998	x1 = 0.7998	x1 = 0.9001
293.15 K	1.4	1.31	1.23	1.16	1.09	1.03	0.971	0.927	0.885
303.15 K	1.18	1.11	1.05	1	0.94	0.9	0.852	0.811	0.778
313.15 K	1.01	0.962	0.916	0.871	0.831	0.792	0.751	0.717	0.69
323.15 K	0.886	0.843	0.806	0.768	0.735	0.703	0.67	0.642	0.618

CCCOC(=O)CCC + CCCCCCCCCCCCCC
298.15 K, 101.33 kPa
Details	viscosity [mPa·s]
x2 = 0.0852	0.852
x2 = 0.1135	0.877
x2 = 0.154	0.911
x2 = 0.2133	0.967
x2 = 0.2994	1.054
x2 = 0.3667	1.127
x2 = 0.4774	1.25
x2 = 0.6061	1.413
x2 = 0.7085	1.558
x2 = 0.8446	1.786
x2 = 0.9178	1.909
